The source made the active and inactive calls. No cut-off for these calls is given here. Where a SMILES comes first, the peptide text is derived from it. [ ]: non-standard residue; d: D form. Aib = CC(C)(N)C(=O)O
Tests used:
[1] = Ion conductance property of compound in Diphytanoylphosphatidyl-choline bilayer assessed as ion channel forming ability at 1 uM treated at cis-side of the membrane at +100 mV by tip-dip patch clamp method
[2] = system: Erythrocyte; test: Hemolytic activity in human erythrocytes at 50 ug/ml incubated for 1 hr by absorbance based analysis; format: toxicity, cell-based; conditions: dose 50 µg/ml
[3] = system: Erythrocyte; test: Hemolytic activity in human erythrocytes at 10 ug/ml incubated for 1 hr by absorbance based analysis; format: toxicity, cell-based; conditions: dose 10 µg/ml

Structure (SMILES) | Activity [1] | Activity [2] | Activity [3]
CC[C@H](C)[C@H](NC(=O)[C@@H]1CCCN1C(=O)C(C)(C)NC(=O)[C@@H](NC(=O)[C@@H](NC(=O)[C@@H]1CCCN1C(=O)C(C)(C)NC(=O)[C@@H](NC(=O)[C@H](CC(C)C)NC(=O)[C@H](CC(N)=O)NC(=O)C(C)(C)NC(C)=O)[C@@H](C)CC)[C@@H](C)CC)[C@@H](C)CC)C(=O)O (Ac-[Aib]NLI[Aib]PII[Aib]PI-OH) | Active | Toxic | Non-Toxic
CC[C@H](C)[C@H](NC(=O)[C@H](CC(C)C)NC(=O)[C@@H]1CCCN1C(=O)C(C)(C)NC(=O)[C@H](CC(C)C)NC(=O)[C@H](CC(C)C)NC(=O)[C@H](CC(N)=O)NC(=O)C(C)(C)NC(C)=O)C(=O)NC(C)(C)C(=O)N1CCC[C@H]1C(=O)N[C@@H](CC(C)C)C(=O)O (Ac-[Aib]NLL[Aib]PLI[Aib]PL-OH) | – | Toxic | Non-Toxic
CC[C@H](C)[C@H](NC(=O)[C@@H]1CCCN1C(=O)C(C)(C)NC(=O)[C@@H](NC(=O)[C@@H](NC(=O)[C@@H]1CCCN1C(=O)C(C)(C)NC(=O)[C@H](CC(C)C)NC(=O)[C@H](CC(C)C)NC(=O)[C@H](CC(N)=O)NC(=O)C(C)(C)NC(C)=O)[C@@H](C)CC)[C@@H](C)CC)C(=O)O (Ac-[Aib]NLL[Aib]PII[Aib]PI-OH) | Active | Toxic | –
CC[C@H](C)[C@H](NC(=O)[C@H](CC(N)=O)NC(=O)C(C)(C)NC(C)=O)C(=O)N[C@H](C(=O)NC(C)(C)C(=O)N1CCC[C@H]1C(=O)N[C@@H](CC(C)C)C(=O)N[C@@H](CC(C)C)C(=O)NC(C)(C)C(=O)N1CCC[C@H]1C(=O)N[C@@H](CC(C)C)C(=O)O)[C@@H](C)CC (Ac-[Aib]NII[Aib]PLL[Aib]PL-OH) | Active | Toxic | Non-Toxic
CC[C@H](C)[C@H](NC(=O)[C@@H]1CCCN1C(=O)C(C)(C)NC(=O)[C@H](CC(C)C)NC(=O)[C@H](CC(C)C)NC(=O)[C@@H]1CCCN1C(=O)C(C)(C)NC(=O)[C@H](CC(C)C)NC(=O)[C@H](CC(C)C)NC(=O)[C@H](CC(N)=O)NC(=O)C(C)(C)NC(C)=O)C(=O)O (Ac-[Aib]NLL[Aib]PLL[Aib]PI-OH) | Active | Toxic | Non-Toxic
CC[C@H](C)[C@H](NC(=O)[C@@H]1CCCN1C(=O)C(C)(C)NC(=O)[C@@H](NC(=O)[C@@H](NC(=O)[C@@H]1CCCN1C(=O)C(C)(C)NC(=O)[C@@H](NC(=O)[C@@H](NC(=O)[C@H](CC(N)=O)NC(=O)C(C)(C)NC(C)=O)[C@@H](C)CC)[C@@H](C)CC)[C@@H](C)CC)[C@@H](C)CC)C(=O)O (Ac-[Aib]NII[Aib]PII[Aib]PI-OH) | Active | Toxic | Non-Toxic
CC[C@H](C)[C@H](NC(=O)[C@H](CC(C)C)NC(=O)[C@H](CC(N)=O)NC(=O)C(C)(C)NC(C)=O)C(=O)NC(C)(C)C(=O)N1CCC[C@H]1C(=O)N[C@H](C(=O)N[C@H](C(=O)NC(C)(C)C(=O)N1CCC[C@H]1C(=O)N[C@@H](CC(C)C)C(=O)O)[C@@H](C)CC)[C@@H](C)CC (Ac-[Aib]NLI[Aib]PII[Aib]PL-OH) | inactive | Toxic | Non-Toxic
CC[C@H](C)[C@H](NC(=O)[C@H](CC(N)=O)NC(=O)C(C)(C)NC(C)=O)C(=O)N[C@H](C(=O)NC(C)(C)C(=O)N1CCC[C@H]1C(=O)N[C@H](C(=O)N[C@@H](CC(C)C)C(=O)NC(C)(C)C(=O)N1CCC[C@H]1C(=O)N[C@@H](CC(C)C)C(=O)O)[C@@H](C)CC)[C@@H](C)CC (Ac-[Aib]NII[Aib]PIL[Aib]PL-OH) | inactive | Toxic | Non-Toxic
CC[C@H](C)[C@H](NC(=O)[C@@H](NC(=O)[C@@H]1CCCN1C(=O)C(C)(C)NC(=O)[C@H](CC(C)C)NC(=O)[C@H](CC(C)C)NC(=O)[C@H](CC(N)=O)NC(=O)C(C)(C)NC(C)=O)[C@@H](C)CC)C(=O)NC(C)(C)C(=O)N1CCC[C@H]1C(=O)N[C@@H](CC(C)C)C(=O)O (Ac-[Aib]NLL[Aib]PII[Aib]PL-OH) | – | Toxic | Non-Toxic
CC[C@H](C)[C@H](NC(=O)[C@@H]1CCCN1C(=O)C(C)(C)NC(=O)[C@H](CC(C)C)NC(=O)[C@@H](NC(=O)[C@@H]1CCCN1C(=O)C(C)(C)NC(=O)[C@@H](NC(=O)[C@@H](NC(=O)[C@H](CC(N)=O)NC(=O)C(C)(C)NC(C)=O)[C@@H](C)CC)[C@@H](C)CC)[C@@H](C)CC)C(=O)O (Ac-[Aib]NII[Aib]PIL[Aib]PI-OH) | Active | Toxic | Non-Toxic
CC(=O)NC(C)(C)C(=O)N[C@@H](CC(N)=O)C(=O)N[C@@H](CC(C)C)C(=O)N[C@@H](CC(C)C)C(=O)NC(C)(C)C(=O)N1CCC[C@H]1C(=O)N[C@@H](CC(C)C)C(=O)N[C@@H](CC(C)C)C(=O)NC(C)(C)C(=O)N1CCC[C@H]1C(=O)N[C@@H](CC(C)C)C(=O)O (Ac-[Aib]NLL[Aib]PLL[Aib]PL-OH) | inactive | Toxic | Non-Toxic
CC[C@H](C)[C@H](NC(=O)[C@@H]1CCCN1C(=O)C(C)(C)NC(=O)[C@@H](NC(=O)[C@H](CC(C)C)NC(=O)[C@@H]1CCCN1C(=O)C(C)(C)NC(=O)[C@H](CC(C)C)NC(=O)[C@H](CC(C)C)NC(=O)[C@H](CC(N)=O)NC(=O)C(C)(C)NC(C)=O)[C@@H](C)CC)C(=O)O (Ac-[Aib]NLL[Aib]PLI[Aib]PI-OH) | Active | Toxic | –
CC[C@H](C)[C@H](NC(=O)[C@@H]1CCCN1C(=O)C(C)(C)NC(=O)[C@H](CC(C)C)NC(=O)[C@H](CC(C)C)NC(=O)[C@@H]1CCCN1C(=O)C(C)(C)NC(=O)[C@@H](NC(=O)[C@@H](NC(=O)[C@H](CC(N)=O)NC(=O)C(C)(C)NC(C)=O)[C@@H](C)CC)[C@@H](C)CC)C(=O)O (Ac-[Aib]NII[Aib]PLL[Aib]PI-OH) | Active | Toxic | Non-Toxic
CC[C@H](C)[C@H](NC(=O)[C@H](CC(N)=O)NC(=O)C(C)(C)NC(C)=O)C(=O)N[C@H](C(=O)NC(C)(C)C(=O)N1CCC[C@H]1C(=O)N[C@H](C(=O)N[C@H](C(=O)NC(C)(C)C(=O)N1CCC[C@H]1C(=O)N[C@@H](CC(C)C)C(=O)O)[C@@H](C)CC)[C@@H](C)CC)[C@@H](C)CC (Ac-[Aib]NII[Aib]PII[Aib]PL-OH) | Active | Toxic | –
CC[C@H](C)[C@H](NC(=O)[C@H](CC(N)=O)NC(=O)C(C)(C)NC(C)=O)C(=O)N[C@@H](CC(C)C)C(=O)NC(C)(C)C(=O)N1CCC[C@H]1C(=O)N[C@@H](CC(C)C)C(=O)N[C@@H](CC(C)C)C(=O)NC(C)(C)C(=O)N1CCC[C@H]1C(=O)N[C@@H](CC(C)C)C(=O)O (Ac-[Aib]NIL[Aib]PLL[Aib]PL-OH) | inactive | Toxic | Non-Toxic

Reference: ChEMBL document CHEMBL5576117, “Importance of isoleucine residue in ion channel formation ability of 11-residue peptaibols” (Bioorg Med Chem, 2024)
